ChEMBL document CHEMBL1287680, “C-11 diamino cryptolepine derivatives NSC748392, NSC748393, and NSC748394: anticancer profile and G-quadruplex stabilization” (Bioorg Med Chem Lett, 2010)

How the values were obtained:
IGROV-1 = assay: cells; conditions: Homo sapiens
Description: Anticancer activity against human IGROV1 cells

786-0 = assay: cells; conditions: Homo sapiens
Description: Anticancer activity against human 786-0 cells

RXF 393 = assay: cells; conditions: Homo sapiens
Description: Anticancer activity against human RXF393 cells

EKVX = assay: cells; conditions: Homo sapiens
Description: Anticancer activity against human EKVX cells

SR = assay: cells; conditions: Homo sapiens
Description: Anticancer activity against human SR cells

cells [1] = conditions: Homo sapiens
Description: Anticancer activity against human RPMI8266 cells

SF-295 = assay: cells; conditions: Homo sapiens
Description: Anticancer activity against human SF295 cells

A549 = assay: cells; conditions: Homo sapiens
Description: Anticancer activity against human A549 cells

NCI-H226 = assay: cells; conditions: Homo sapiens
Description: Anticancer activity against human NCI-H226 cells

NCI/ADR-RES = assay: cells; conditions: Homo sapiens
Description: Anticancer activity against human NCI/ADR-RES cells

LOX IMVI = assay: cells; conditions: Homo sapiens
Description: Anticancer activity against human LOXIMVI cells

Nucleic Acid = conditions: Homo sapiens
Description: Binding affinity to human G-quadruplex DNA assessed as change in melting temperature by FRET-melting assay

MDA-MB-468 = assay: cells; conditions: Homo sapiens
Description: Anticancer activity against human MDA-MB-468 cells

SNB-75 = assay: cells; conditions: Homo sapiens
Description: Anticancer activity against human SNB75 cells

UACC-62 = assay: cells; conditions: Homo sapiens
Description: Anticancer activity against human UACC62 cells

cells [2] = conditions: Homo sapiens, Hs-578T
Description: Anticancer activity against human Hs 578T cells

MDA-MB-435 = assay: cells; conditions: Homo sapiens
Description: Anticancer activity against human MDA-MB-435 cells

HT-29 = assay: cells; conditions: Homo sapiens
Description: Anticancer activity against human HT-29 cells

SF-539 = assay: cells; conditions: Homo sapiens
Description: Anticancer activity against human SF539 cells

HCT-116 = assay: cells; conditions: Homo sapiens
Description: Anticancer activity against human HCT116 cells

TK-10 = assay: cells; conditions: Homo sapiens
Description: Anticancer activity against human TK10 cells

A498 = assay: cells; conditions: Homo sapiens
Description: Anticancer activity against human A498 cells

M14 = assay: cells; conditions: Homo sapiens
Description: Anticancer activity against human M14 cells

CCRF-CEM = assay: cells; conditions: Homo sapiens
Description: Anticancer activity against human CCRF-CEM cells

NCI-H460 = assay: cells; conditions: Homo sapiens
Description: Anticancer activity against human NCI-H460 cells

OVCAR-4 = assay: cells; conditions: Homo sapiens
Description: Anticancer activity against human OVCAR4 cells

SF-268 = assay: cells; conditions: Homo sapiens
Description: Anticancer activity against human SF268 cells

COLO 205 = assay: cells; conditions: Homo sapiens
Description: Anticancer activity against human COLO205 cells

U-251 = assay: cells; conditions: Homo sapiens
Description: Anticancer activity against human U251 cells

Description for physchem: Dissociation constant, pKa of the compound by UV-visible spectroscopy

CCN(CC)CCCCNc1c2ccccc2[n+](C)c2c1[nH]c1ccccc12.[Cl-]
GI50 (IGROV-1; IGROV-1, read-out: pGI50 (converted)): 468 nM
CC50 (IGROV-1; IGROV-1, read-out: pLC50 (converted)): > 100000 nM
TGI (IGROV-1; IGROV-1, read-out: pTGI): 7410 nM
GI50 (786-0; 786-0, read-out: pGI50 (converted)): 1910 nM
CC50 (786-0; 786-0, read-out: pLC50 (converted)): 97700 nM
TGI (786-0; 786-0, read-out: pTGI): 6760 nM
GI50 (RXF 393; RXF 393, read-out: pGI50 (converted)): 389 nM
CC50 (RXF 393; RXF 393, read-out: pLC50 (converted)): 8130 nM
TGI (RXF 393; RXF 393, read-out: pTGI): 1510 nM
GI50 (EKVX; read-out: pGI50 (converted)): 269 nM
CC50 (EKVX; read-out: pLC50 (converted)): > 100000 nM
TGI (EKVX; read-out: pTGI): 3630 nM
GI50 (SR; read-out: pGI50 (converted)): 372 nM
CC50 (SR; read-out: pLC50 (converted)): > 100000 nM
TGI (SR; read-out: pTGI): 42700 nM
GI50 (cells [1]; RPMI8266, read-out: pGI50 (converted)): 288 nM
CC50 (cells [1]; RPMI8266, read-out: pLC50 (converted)): > 100000 nM
TGI (cells [1]; RPMI8266, read-out: pTGI): 1660 nM
GI50 (SF-295; SF-295, read-out: pGI50 (converted)): 603 nM
CC50 (SF-295; SF-295, read-out: pLC50 (converted)): > 100000 nM
TGI (SF-295; SF-295, read-out: pTGI): 5010 nM
GI50 (A549; A549, read-out: pGI50 (converted)): 52.5 nM
CC50 (A549; A549, read-out: pLC50 (converted)): > 100000 nM
TGI (A549; A549, read-out: pTGI): 15500 nM
GI50 (NCI-H226; NCI-H226, read-out: pGI50 (converted)): 166 nM
CC50 (NCI-H226; NCI-H226, read-out: pLC50 (converted)): > 100000 nM
TGI (NCI-H226; NCI-H226, read-out: pTGI): 676 nM
GI50 (NCI/ADR-RES; read-out: pGI50 (converted)): 69200 nM
CC50 (NCI/ADR-RES; read-out: pLC50 (converted)): > 100000 nM
TGI (NCI/ADR-RES; read-out: pTGI): > 100000 nM
GI50 (LOX IMVI; read-out: pGI50 (converted)): 331 nM
CC50 (LOX IMVI; read-out: pLC50 (converted)): 7410 nM
TGI (LOX IMVI; read-out: pTGI): 1410 nM
ΔTm (Nucleic Acid): 20.9 °C
GI50 (MDA-MB-468; MDA-MB-468, read-out: pGI50 (converted)): 204 nM
CC50 (MDA-MB-468; MDA-MB-468, read-out: pLC50 (converted)): 2140 nM
TGI (MDA-MB-468; MDA-MB-468, read-out: pTGI): 550 nM
GI50 (SNB-75; SNB-75, read-out: pGI50 (converted)): 347 nM
CC50 (SNB-75; SNB-75, read-out: pLC50 (converted)): 3800 nM
TGI (SNB-75; SNB-75, read-out: pTGI): 1290 nM
GI50 (UACC-62; UACC-62, read-out: pGI50 (converted)): 83.2 nM
CC50 (UACC-62; UACC-62, read-out: pLC50 (converted)): 589 nM
TGI (UACC-62; UACC-62, read-out: pTGI): 234 nM
GI50 (cells [2]; read-out: pGI50 (converted)): 269 nM
CC50 (cells [2]; read-out: pLC50 (converted)): 93300 nM
TGI (cells [2]; read-out: pTGI): 955 nM
GI50 (MDA-MB-435; MDA-MB-435, read-out: pGI50 (converted)): 631 nM
CC50 (MDA-MB-435; MDA-MB-435, read-out: pLC50 (converted)): 5620 nM
TGI (MDA-MB-435; MDA-MB-435, read-out: pTGI): 2090 nM
GI50 (HT-29; HT-29, read-out: pGI50 (converted)): 251 nM
CC50 (HT-29; HT-29, read-out: pLC50 (converted)): > 100000 nM
TGI (HT-29; HT-29, read-out: pTGI): 1910 nM
GI50 (SF-539; SF-539, read-out: pGI50 (converted)): 427 nM
CC50 (SF-539; SF-539, read-out: pLC50 (converted)): 4070 nM
TGI (SF-539; SF-539, read-out: pTGI): 1620 nM
pKa (physchem): 11.6
GI50 (HCT-116; HCT-116, read-out: pGI50 (converted)): 331 nM
CC50 (HCT-116; HCT-116, read-out: pLC50 (converted)): > 100000 nM
TGI (HCT-116; HCT-116, read-out: pTGI): 3800 nM
GI50 (TK-10; TK-10, read-out: pGI50 (converted)): 2140 nM
CC50 (TK-10; TK-10, read-out: pLC50 (converted)): > 100000 nM
TGI (TK-10; TK-10, read-out: pTGI): 8910 nM
GI50 (A498; A498, read-out: pGI50 (converted)): 468 nM
CC50 (A498; A498, read-out: pLC50 (converted)): < 7590 nM
TGI (A498; A498, read-out: pTGI): 2040 nM
GI50 (M14; M14, read-out: pGI50 (converted)): 1350 nM
CC50 (M14; M14, read-out: pLC50 (converted)): 7410 nM
TGI (M14; M14, read-out: pTGI): 3160 nM
GI50 (CCRF-CEM; read-out: pGI50 (converted)): 427 nM
CC50 (CCRF-CEM; read-out: pLC50 (converted)): > 100000 nM
TGI (CCRF-CEM; read-out: pTGI): 2570 nM
GI50 (NCI-H460; NCI-H460, read-out: pGI50 (converted)): 91.2 nM
CC50 (NCI-H460; NCI-H460, read-out: pLC50 (converted)): 52500 nM
TGI (NCI-H460; NCI-H460, read-out: pTGI): 1290 nM
GI50 (OVCAR-4; OVCAR-4, read-out: pGI50 (converted)): 437 nM
TGI (OVCAR-4; OVCAR-4, read-out: pTGI): 1700 nM
GI50 (SF-268; SF-268, read-out: pGI50 (converted)): 224 nM
CC50 (SF-268; SF-268, read-out: pLC50 (converted)): 33100 nM
TGI (SF-268; SF-268, read-out: pTGI): 1580 nM
GI50 (COLO 205; COLO 205, read-out: pGI50 (converted)): 158 nM
CC50 (COLO 205; COLO 205, read-out: pLC50 (converted)): 2950 nM
TGI (COLO 205; COLO 205, read-out: pTGI): 676 nM
GI50 (U-251; U-251, read-out: pGI50 (converted)): 229 nM
CC50 (U-251; U-251, read-out: pLC50 (converted)): 24500 nM
TGI (U-251; U-251, read-out: pTGI): 1350 nM
